Experimental data from patent EP0598011B1, “ECDYSTEROID DEPENDENT REGULATION OF GENES IN MAMMALIAN CELLS” (GENENTECH, INC., priority 1991, dated 1993).

Columns and labels:
VGEc = target: T1, VGEc (Drosophila melanogaster, UniProt P34021); assay: Induction of GRE reporter G4M-77CO by chimeric receptor VGEc in 293 cells; type: cell-based; details: normalized to hGH, SD in parentheses
T1 construct: expressed in transfected cells; host or cells: 293 cells
T1 sequence (P34021 329-878): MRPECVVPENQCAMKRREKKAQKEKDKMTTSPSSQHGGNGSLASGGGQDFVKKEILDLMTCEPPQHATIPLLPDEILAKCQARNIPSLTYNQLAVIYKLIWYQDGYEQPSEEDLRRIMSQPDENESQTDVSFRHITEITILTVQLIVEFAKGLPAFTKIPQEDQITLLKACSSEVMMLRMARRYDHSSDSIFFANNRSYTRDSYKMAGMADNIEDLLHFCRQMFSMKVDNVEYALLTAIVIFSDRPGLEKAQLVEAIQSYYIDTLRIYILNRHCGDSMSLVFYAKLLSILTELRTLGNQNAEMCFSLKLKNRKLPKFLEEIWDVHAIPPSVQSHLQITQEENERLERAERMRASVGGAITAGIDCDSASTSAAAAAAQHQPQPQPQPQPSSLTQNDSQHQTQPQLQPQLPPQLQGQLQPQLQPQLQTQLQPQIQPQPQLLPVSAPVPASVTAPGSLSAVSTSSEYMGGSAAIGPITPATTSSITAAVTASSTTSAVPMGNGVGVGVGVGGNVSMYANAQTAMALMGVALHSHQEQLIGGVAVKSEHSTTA
Excerpt: Finally, I determined if the activity of DHR23α fusion proteins could be further enhanced by inclusion of a potent viral transactivation domain. I constructed VGEc and VLxEc fusion genes by replacing a portion of the GR N-terminal activation domain in GGEc and GLxEc, respectively, with the herpes virus VP16 acidic activation domain (I. Sadowski et al., […]. 335, 563 [1988]; D. J. Cousens, R. Greaves, C. R. Coding, and P. O'Hare, EMBO J. 8, 2337 [1989]) (Fig. 4A). In transfected cells, these proteins accumulated to similar levels as derivatives lacking the VP16 activation domain (Fig. 4B). Both VGEc and VLxEc acted in an ecdysteroid-dependent fashion to induce activity of the appropriate reporter gene (Tables 1 and 2). However, the activity of VGEc and VLxEc was 5 and 10 fold greater than GGEc and GLxEc, respectively (M..A. Labow, S.B. Baim, T. Shenk, and A. J. Levine, Mol. and Cell. Biol. 10, 3343 [1990]). Thus, the DHR23α ligand-binding domain can be used to regulate the activities of viral, mammalian and bacterial DNA-binding or transactivation domains.

GXEc = target: T2, GXEc (Drosophila melanogaster, UniProt P34021); assay: Lex-operator reporter X4C-33CO with GXEc; type: cell-based; details: receptor GXEc, SD in parentheses
T2 construct: expressed in transfected cells
T2 sequence (P34021 329-878): T1 sequence (P34021 329-878)
Excerpt: Such fusion constructs are expected to be useful in regulating the expression of exogenous genes introduced into transgenic mammals or mammalian cells. I next determined if the DHR23α ligand-binding domain could be used to regulate the activity of a DNA-binding domain not normally expressed in mammalian cells. I constructed the chimeric gene GLxEc by replacing the sequences coding for the GR DNA-binding domain in the GGEc fusion with those encoding the DNA-binding domain of the Escherichia coli LexA repressor (J. W. Little and S. A. Hill, Proc. Natl. Acad. Sci. U.S.A. 82, 2301 [1985]) (Fig. 4). A reporter gene, X4C-33CO was constructed that contains 4 copies of a 26-bp lex operator (R. Brent and M. Ptashne, Nature 312, 612 [1984]) at position -33 of the CMV promoter. GLxEc had no effect on the expression of a OC-33CO, a reporter gene lacking the lex operator (Fig. 6B).
Illustrated in Table 2 is the transcriptional activation by receptor-LexA fusion proteins. Effector plasmids encoding the indicated receptor proteins were transfected with a reporter gene either containing (X4C-33CO) or lacking (OC-33CO) lex-operators. […] The cells were incubated either with (+) or without (-) muristerone A. The fold induction was determined as described previously; the standard deviations are shown in parenthesis.

GGG = target: T3, GGG (Rattus norvegicus, UniProt P06536); assay: Induction of GRE reporter G4M-77CO by GGG (glucocorticoid receptor) in 293 cells; details: normalized to hGH, SD in parentheses, 2880 min
T3 sequence (P06536 1-795): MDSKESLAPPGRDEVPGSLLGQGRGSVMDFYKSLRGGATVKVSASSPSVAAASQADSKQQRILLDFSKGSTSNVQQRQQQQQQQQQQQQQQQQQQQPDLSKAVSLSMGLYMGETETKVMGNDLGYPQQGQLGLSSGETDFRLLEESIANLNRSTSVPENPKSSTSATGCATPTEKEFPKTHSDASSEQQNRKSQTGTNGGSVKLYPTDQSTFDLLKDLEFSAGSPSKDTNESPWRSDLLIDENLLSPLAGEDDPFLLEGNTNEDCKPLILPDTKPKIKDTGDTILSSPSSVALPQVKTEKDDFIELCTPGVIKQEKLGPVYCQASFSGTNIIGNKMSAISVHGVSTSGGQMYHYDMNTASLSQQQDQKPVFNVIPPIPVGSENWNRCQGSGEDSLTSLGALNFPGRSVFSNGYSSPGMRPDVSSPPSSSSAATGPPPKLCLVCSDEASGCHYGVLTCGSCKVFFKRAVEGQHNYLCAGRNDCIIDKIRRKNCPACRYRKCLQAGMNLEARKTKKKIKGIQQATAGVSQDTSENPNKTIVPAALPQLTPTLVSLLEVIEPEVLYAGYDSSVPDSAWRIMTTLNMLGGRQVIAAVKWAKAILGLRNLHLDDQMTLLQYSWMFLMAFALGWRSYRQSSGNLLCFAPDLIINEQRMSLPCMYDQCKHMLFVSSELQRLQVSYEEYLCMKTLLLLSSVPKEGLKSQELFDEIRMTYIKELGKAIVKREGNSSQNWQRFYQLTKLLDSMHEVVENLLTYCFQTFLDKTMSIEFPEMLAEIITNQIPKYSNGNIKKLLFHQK

In the case of `CC(C)CCC(O)[C@](C)(O)[C@H]1CC[C@@]2(O)C3=CC(=O)C4(O)CC(O)C(O)C[C@]4(C)[C@H]3C(O)C[C@]12C` (stereo partly drawn) [muristerone A, 2,3,5,11,14,20,22-Heptahydroxy-7-cholesten-6-one], the fold induction (VGEc) is reported as 3117 (240) fold, the fold induction (GXEc) is reported as 44.3 (8.3) fold and the fold induction (GGG) is reported as 1.0 (0.3) fold.
